Here are results for 1 compound from PMC13053910, “Covalent Protein Inhibitors via Tyrosine and Tryptophan Conjugation with Cyclic Imine Mannich Electrophiles” (Angewandte Chemie (International Ed. in English), 2026).

The nature of series [1]: Stability of warheads and inhibitors (solid, PBS, hydrolysis). Format: physicochemical. The note with it: 24 h in aqueous buffer, then sodium cyanoborohydride, mass spectrometry. On the procedure: To be suitable for chemical probe and therapeutic applications, the warhead should show good stability. In general, we found the iminolactam warheads to be quite stable. Compound 1 was stable as a solid at room temperature for over 3 months. […] After 24‐h in aqueous buffer, compounds were treated with sodium cyanoborohydride. […] The synthetic strategy of in situ formation of imines by periodate treatment was pursued to avoid concerns of warhead reactivity with the ligand itself to either the peptide backbone or the phenoxyphenyl aryl group. This appears to have been unnecessary, at least for the iminolactam warhead. […] The more reactive ester imine may be forming semi‐stable cyclized products with the amide backbone, which have been observed previously with peptide aldehydes.^[ [51], [52] ^] Due to these issues, we selected compound P1b for further characterization.

The target of series [2] is T1, CBX8 Y39F (Homo sapiens, UniProt Q9HC52, Y39F).
T1 construct: 6His (N); TEV site (ENLYFQG), read by me from the printed insert DNA (N); host or cells: E. coli (BL21 CodonPlus RIL or Rosetta 2), pET-28a(+)
T1 sequence (Q9HC52 11-69 Y39F limits assumed): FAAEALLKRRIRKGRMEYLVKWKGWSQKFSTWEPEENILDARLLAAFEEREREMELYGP
The series can be described thus: Labeling of CBX8 Y39F mutant (gel shift, LC/MS). The series is classed as binding. As to conditions: gel shift and LC/MS, 10 µM each, 37 °C. On the procedure: (§1) Observed masses are shown (expected average mass for CBX8 ChD = 8792 Da). The observed mass difference (913 Da) agrees with the expected mass change of 913 Da. b) Labeled protein was detected by gel shift on 16.5% Tris‐Tricine SDS‐PAGE. […] Gel analysis was conducted on a 2.5% agarose gel in 10 mM sodium borate buffer. […] Assays were conducted using SW2_113 as an FP probe (Figure S20) at 100 nM. All proteins were used at 2 µM in PBS (pH 7), 0.02% Tween 20. Error bars represent SD. […] (μM); no other compound label is printed beside the IC50 lines
(§2) We confirmed protein labeling through a gel shift assay on Tris‐Tricine SDS‐PAGE (Figure 5b). […] To validate labeling of the targeted tyrosine residue (Y39), this amino acid was mutated to phenylalanine. […] We additionally confirmed the labeling site as Y39 by trypsin digest and LC‐MS/MS analysis (Figure S9B).
(§3) For P2, 10 µM purified CBX ChD was incubated with P2 (10 µM) in PBS buffer (pH 7) at 37 °C or R.T. for 1.5 hours, as well as 12 hours overnight. Samples were precipitated using MeOH and CHCl3 at the volume ratio of MeOH:CHCl3:sample=3:0.5:1, washed twice using cold MeOH, and air dried. Dried protein pellets were resuspended in aqueous buffer (0.1% formic acid, 300 mM ammonium acetate), and protein labeling were characterized and quantitated by ESI LC-MS.

For series [3], the target named is T2, CBX2 ChD (Homo sapiens, UniProt Q14781).
T2 construct: CBX chromodomain constructs (addgene plasmid #25158 (CBX2), and #62514 (CBX8, provided by Cheryl Arrowsmith)); 6His; host or cells: E. coli (BL21 CodonPlus RIL or Rosetta 2)
T2 sequence (Q14781 12-70 limits assumed): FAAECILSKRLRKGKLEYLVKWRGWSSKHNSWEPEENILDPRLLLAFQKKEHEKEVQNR
Put plainly: Labeling of CBX2 ChD (gel shift, MS). Format: binding. As to conditions: gel shift or MS. On the procedure: as §1, §2, §3

The subject of series [4] is HOXA9 gene expression in THP1 cells. The series can be described thus: qRT-PCR analysis of HOXA9 gene expression in THP1 cells. The series is classed as cell-based, Human. The note with it: 10 µM, 48 h. On the procedure: Figure 7 Cellular activity of covalent, cyclic imine inhibitors to CBX8. a) qRT‐PCR analysis of HOXA9 gene expression in THP1 cells after 48 h of compound treatment at the indicated dose. N = 3. Error bars represent SD. Statistical significance was calculated using Student's t‐test. ** = p < 0.01, **** = p < 0.0001, b) qRT‐PCR analysis of HOXA9 gene expression in THP1 cells treated with increasing doses of compound for 48 h. N = 3. Error bars represent SD.
Figure S24. Cellular activity of covalent, cyclic imine inhibitors to CBX8. qRT-PCR analysis of HOXA9 gene expression in THP1 cells after 48 h of compound treatment at the indicated dose. N = 3. Error bars represent s.d. Statistical significance determined by Student’s T test. * = p <0.05, ** = p < 0.01, *** = p < 0.001, **** = p < 0.0001.
2.4 Cell Culture Cell line, Media and Culture Conditions HEK293T cells were cultured in Dubecco’s Modified Essential Media (DMEM), 10% fetal bovine serum (FBS, JR Scientific), 1% glutagro (Corning), 1% penicillin/streptomycin (Corning), 1% sodium pyruvate (Corning). Human THP1 cells were cultured in RPMI (Gibco), 10% FBS (J R Scientific), 1% Sodium pyruvate (Invitrogen), 1% Pen/Strep (Invitrogen), 1% Glutamax (Thermo Scientific), 0.1% 2-mercaptoethanol.
Cells were harvested after 48 h for RNA extraction. […] SYBR Green Mastermix (Thermo Scientific) was used for quantitative PCR. […]
Background: Real-time PCR tracks product formation cycle by cycle.

Consider `CC[C@H](C)[C@H](NC(=O)[C@@H](NC(=O)c1ccc(Oc2ccccc2)cc1)C1CCCC1)C(=O)N[C@@H](CCCCN(CC)CCCCCCN1CCN=CC1=O)C(=O)N[C@@H](CO)C(N)=O` [P1b], for which, in series [1], the “stability to long‐term incubation in PBS” value is “stability over the 24 h”. The “labeling of mutant CBX8 Y39F” value in series [2] was “fails to label”. Further, the “labeling of CBX2 ChD” value in series [3] is given as “no labeled protein was detected”. Besides, the “reduction of HOXA9 gene expression (in words)” value in series [4] is recorded as “most effective at reducing HOXA9 gene expression”.
